In patent US20230293469A1, “NOVEL PHARMACEUTICAL COMPOSITIONS” (NEUROPRO THERAPEUTICS, INC., priority 2020, published 2023):
“And” between values parts separate entries of the source, which are not always exact repeats. Equal entries are not always repeated.

Columns and labels:
[1] = IV bolus PK of NPT-2042 in dog; assay type: in vivo
Procedure: (§1) Assays were performed to determine absolute bioavailability of NPT2042 in two species: dog and rat. The calculation of absolute bioavailability depends on four inputs: the areas under the curves (AUC) for oral and IV, and the oral and IV doses.
Testing was conducted to determine AUC for an IV dose in dog.
The same two dogs were each dosed 2042 IV at 10 mg/kg.
Table 8 provides Noncompartmental Parameters for NPT-2042 for 10 mg/kg Bolus Dosing of NPT-2042 in Dogs (n=2).

[2] = Oral dose PK of NPT-2042 in rat; assay type: in vivo
Procedure: as §1
Testing was conducted to determine AUCs for an oral dose in rat.

[3] = IV bolus PK of NPT-2042 in rat; assay type: in vivo; settings: IV bolus 10 mg/kg
Rat Microsomes = assay: Metabolite screening of NPT-2042 in rat microsomes; assay type: in vitro ADME; settings: NPT-2042 10 uM, microsomes 1 mg/mL
Procedure: (§2) Incubation of Test Compound in Microsomes • 1. Compound final concentration: 10 uM. • 2. Microsomes concentration 1 mg/mL. • 3. Incubate for 1 hour, with an NADPH regenerating system. • 4. 0.5 mL of incubation mixture at 0 min and 1 hour, mixed with 0.5 mL of acetonitrile. • 5. Vortex, and centrifuge at 13200 rpm for 10 min. • 6. Supernatant was transferred to a clean vial for LCMS analysis NADPH regenerating system (cofactor; consisting of NADP [0.340 mg/mL], G6P [1.56 mg/mL], and G6PDH [0.4 U/mL] solutions) LC-MS/MS Method: • HPLC Column: Agilent, Polaris 3 […], 150×2.0 mm (S/N: 533819), made in Netherlands. • Guard Column: Agilent, MonoChrom 3 C18 MetaGuard, 10×2.0 mm (S/N: 556145) • Column temperature: 40° C. • Mobile Phase A: 5 mM ammonium format in water (Optima) • Mobile Phase B: acetonitrile (Optima) • Flow rate: 0.2 mL/min • Gradient (Table on right) • MS: Thermo Q Exactive Plus.

Dog Microsomes = assay: Metabolite screening of NPT-2042 in dog microsomes; assay type: in vitro ADME; settings: NPT-2042 10 uM, microsomes 1 mg/mL
Procedure: as §2

Human Microsomes = assay: Metabolite screening of NPT-2042 in human microsomes; assay type: in vitro ADME; settings: NPT-2042 10 uM, microsomes 1 mg/mL
Procedure: as §2

Microsomes = assay: Proposed metabolite structures and biotransformation pathways (rat, dog, human microsomes); assay type: in vitro ADME; settings: rat, dog, human microsomes, 10 uM, 1 hour
Procedure: Incubation of Test Compound in Microsomes • 1. Compound final concentration: 10 uM. • 2. Microsomes concentration 1 mg/mL. • 3. Incubate for 1 hour, with an NADPH regenerating system. • 4. 0.5 mL of incubation mixture at 0 min and 1 hour, mixed with 0.5 mL of acetonitrile. • 5. Vortex, and centrifuge at 13200 rpm for 10 min. • 6. Supernatant was transferred to a clean vial for LCMS analysis NADPH regenerating system (cofactor; consisting of NADP [0.340 mg/mL], G6P [1.56 mg/mL], and G6PDH [0.4 U/mL] solutions)
LC-MS/MS Method: • HPLC Column: Agilent, Polaris 3 C18-A, 150×2.0 mm (S/N: 533819), made in Netherlands. • Guard Column: Agilent, MonoChrom 3 C18 MetaGuard, 10×2.0 mm (S/N: 556145) • Column temperature: 40° C. • Mobile Phase A: 5 mM ammonium format in water (Optima) • Mobile Phase B: acetonitrile (Optima) • Flow rate: 0.2 mL/min • Gradient (Table on right) • MS: Thermo Q Exactive Plus.
Summary of Proposed Metabolite Structures and Biotransformation Pathway

[4] = NPT-2042, dog, IV bolus 10 mg/kg, animals 1201A, 1501A, Mean, 10 mg/kg
[5] = plasma, NPT-2042, rat, oral 30 mg/kg
[6] = rat, oral, dose column 30 mg/kg, individual rats and Mean (N=3)
[7] = rat, oral, dose column 30 mg/kg, individual rats and Mean (N=3), mean
[8] = rat, individual rats and Mean (N=3), 10 mg/kg
[9] = rat, individual rats and Mean (N=3), 10 mg/kg, mean
[10] = 1 hour, NADPH regenerating system

Q: What does the source list for CCCCNc1cc(C(=O)N(Cc2ccccc2)Cc2ccccc2)cc(S(N)(=O)=O)c1Oc1ccccc1 [NPT-2042, N,N-Dibenzyl 3-Aminosulfonyl-5-butylamino-4-phenoxybenzamide]?
A: C0 (back-extrapolated concentration) [1, 4]: 5680 ng/mL and 6440 ng/mL; CL (total body clearance) [1, 4]: 19.5 mL/min/kg and 16.2 mL/min/kg; Tmax [1, 4]: 4.98 min; Vz (volume of distribution) [1, 4]: 6.44 L/kg and 6.54 L/kg; t½ (terminal-phase half-life) [1, 4]: 3.82 h and 4.67 h; Plasma NPT-2042 concentrations (in words) ([1]; dog, IV bolus 10 mg/kg): high and still quantifiable at 24 hours after dosing; Diuresis ([1]; dog, IV bolus 10 mg/kg NPT-2042): lack of diuresis; Decay profile after bolus dosing ([1]; dog, IV bolus 10 mg/kg, log-linear plots): multi-exponential decay; AUC(0-inf) ([1]; dog, plasma, iv, 10 mg/kg, NPT-2042, dog, IV bolus 10 mg/kg, animals 1201A, 1501A, Mean): 8560 ng·h/mL; C0 ([1]; dog, plasma, iv, 10 mg/kg, NPT-2042, dog, IV bolus 10 mg/kg, animals 1201A, 1501A, Mean, read-out: C0 (back-extrapolated concentration)): 6060 ng/mL; clearance ([1]; dog, plasma, iv, 10 mg/kg, NPT-2042, dog, IV bolus 10 mg/kg, animals 1201A, 1501A, Mean, read-out: CL (total body clearance) (converted)): 17.8 mL/min/kg; Cmax ([1]; dog, plasma, iv, 10 mg/kg, NPT-2042, dog, IV bolus 10 mg/kg, animals 1201A, 1501A, Mean, read-out: Cmax): 5210 ng/mL; Tmax ([1]; dog, plasma, iv, 10 mg/kg, NPT-2042, dog, IV bolus 10 mg/kg, animals 1201A, 1501A, Mean, read-out: Tmax): 4.8 min; Vd ([1]; dog, plasma, iv, 10 mg/kg, NPT-2042, dog, IV bolus 10 mg/kg, animals 1201A, 1501A, Mean, read-out: Vz (volume of distribution)): 6.49 L/kg; half-life ([1]; dog, plasma, iv, 10 mg/kg, NPT-2042, dog, IV bolus 10 mg/kg, animals 1201A, 1501A, Mean, read-out: t½ (terminal-phase half-life) (converted)): 4.25 h; concentration at 0.08 h ([1]; dog, plasma, iv, 10 mg/kg, dog, IV bolus 10 mg/kg, animals 1201A, 1501A, Mean, read-out: Plasma NPT-2042 concentration, Time 0.08 h): 5560 ng/mL; concentration at 1 h ([1]; dog, plasma, iv, 10 mg/kg, dog, IV bolus 10 mg/kg, animals 1201A, 1501A, Mean, read-out: Plasma NPT-2042 concentration, Time 1.00 h): 2240 ng/mL; concentration at 2 h ([1]; dog, plasma, iv, 10 mg/kg, dog, IV bolus 10 mg/kg, animals 1201A, 1501A, Mean, read-out: Plasma NPT-2042 concentration, Time 2.00 h): 1230 ng/mL; concentration at 4 h ([1]; dog, plasma, iv, 10 mg/kg, dog, IV bolus 10 mg/kg, animals 1201A, 1501A, Mean, read-out: Plasma NPT-2042 concentration, Time 4.00 h): 688 ng/mL; concentration at 6 h ([1]; dog, plasma, iv, 10 mg/kg, dog, IV bolus 10 mg/kg, animals 1201A, 1501A, Mean, read-out: Plasma NPT-2042 concentration, Time 6.00 h): 326 ng/mL; concentration at 8 h ([1]; dog, plasma, iv, 10 mg/kg, dog, IV bolus 10 mg/kg, animals 1201A, 1501A, Mean, read-out: Plasma NPT-2042 concentration, Time 8.00 h): 182 ng/mL; CL as fraction of hepatic blood flow ([1]; dog, hepatic blood flow about 1.5 L/h/kg): about ⅔; half-life ([2]; in vivo, NPT-2042, rat, oral 30 mg/kg, read-out: t½ (converted)): 2.61 h; bioavailability ([2]; in vivo, rat, oral 30 mg/kg vs IV 10 mg/kg, read-out: Fabs (%), absolute bioavailability): 0.34%; AUC(0-inf) [2, 5]: 35.4 ng·h/mL; Cmax [2, 5]: 4.56 ng/mL; Tmax [2, 5]: 4 h; concentration at 0.5 h ([2]; rat, in vivo, oral, 30 mg/kg, rat, oral, dose column 30 mg/kg, individual rats and Mean (N=3), read-out: NPT-2042 concentration, Time 0.50 h): 2.01 ng/mL; concentration at 2 h ([2]; rat, in vivo, oral, 30 mg/kg, rat, oral, dose column 30 mg/kg, individual rats and Mean (N=3), read-out: NPT-2042 concentration, Time 2.00 h): 4 ng/mL; concentration at 4 h ([2]; rat, in vivo, oral, 30 mg/kg, rat, oral, dose column 30 mg/kg, individual rats and Mean (N=3), read-out: NPT-2042 concentration, Time 4.00 h): 3.52 ng/mL; concentration at 6 h ([2]; rat, in vivo, oral, 30 mg/kg, rat, oral, dose column 30 mg/kg, individual rats and Mean (N=3), read-out: NPT-2042 concentration, Time 6.00 h): 3.99 ng/mL; concentration at 12 h ([2]; rat, in vivo, oral, 30 mg/kg, rat, oral, dose column 30 mg/kg, individual rats and Mean (N=3), read-out: NPT-2042 concentration, Time 12.00 h): 0.78 ng/mL; Fabs (ratio), absolute bioavailability ([2]; rat, oral 30 mg/kg vs IV 10 mg/kg): 0.0034; NPT-2042 concentration, Time 0.50 h [2, 6]: 1.29 ng/mL and 1.67 ng/mL; NPT-2042 concentration, Time 1.00 h [2, 6]: 2.14 ng/mL and 4.70 ng/mL and 2.45 ng/mL; NPT-2042 concentration, Time 2.00 h [2, 6]: 2.88 ng/mL and 3.60 ng/mL; NPT-2042 concentration, Time 4.00 h [2, 6]: 5.42 ng/mL and 4.73 ng/mL; NPT-2042 concentration, Time 6.00 h [2, 6]: 2.49 ng/mL and 4.15 ng/mL; NPT-2042 concentration, Time 8.00 h [2, 6]: 1.57 ng/mL and 2.57 ng/mL and 3.20 ng/mL; NPT-2042 concentration, Time 12.00 h [2, 6]: 0.715 ng/mL and 0.731 ng/mL; NPT-2042 concentration, Time 0.50 h [2, 7]: 1.66 ng/mL; NPT-2042 concentration, Time 1.00 h [2, 7]: 3.10 ng/mL; NPT-2042 concentration, Time 2.00 h [2, 7]: 3.49 ng/mL; NPT-2042 concentration, Time 4.00 h [2, 7]: 4.56 ng/mL; NPT-2042 concentration, Time 6.00 h [2, 7]: 3.54 ng/mL; NPT-2042 concentration, Time 8.00 h [2, 7]: 2.45 ng/mL; NPT-2042 concentration, Time 12.00 h [2, 7]: 0.742 ng/mL; clearance ([3]; in vivo, NPT-2042, rat): 48 mL/min/kg; Vd ([3]; in vivo, NPT-2042, rat, read-out: Vz): 10.8 L/kg; half-life ([3]; in vivo, NPT-2042, rat, read-out: t½ (converted)): 2.61 h; AUC(0-inf) ([3]; plasma, NPT-2042, rat): 3470 ng·h/mL; Cmax ([3]; plasma, NPT-2042, rat): 2510 ng/mL; Tmax ([3]; plasma, NPT-2042, rat): 4.8 min; NPT-2042 concentration, Time 0.08 h [3, 8]: 3080 ng/mL and 2720 ng/mL; NPT-2042 concentration, Time 1.00 h [3, 8]: 250 ng/mL and 1190 ng/mL and 924 ng/mL; NPT-2042 concentration, Time 2.00 h [3, 8]: 477 ng/mL and 421 ng/mL; NPT-2042 concentration, Time 4.00 h [3, 8]: 205 ng/mL and 218 ng/mL; NPT-2042 concentration, Time 6.00 h [3, 8]: 203 ng/mL and 145 ng/mL and 60.8 ng/mL; NPT-2042 concentration, Time 8.00 h [3, 8]: 20.0 ng/mL and 33.1 ng/mL and 87.3 ng/mL; NPT-2042 concentration, Time 12.00 h [3, 8]: 60.8 ng/mL and 18.6 ng/mL and 4.67 ng/mL; NPT-2042 concentration, Time 24.00 h [3, 8]: 0.257 ng/mL and 0.582 ng/mL and 1.95 ng/mL; NPT-2042 concentration, Time 0.08 h [3, 9]: 2510 ng/mL; NPT-2042 concentration, Time 1.00 h [3, 9]: 788 ng/mL; NPT-2042 concentration, Time 2.00 h [3, 9]: 405 ng/mL; NPT-2042 concentration, Time 4.00 h [3, 9]: 196 ng/mL; NPT-2042 concentration, Time 6.00 h [3, 9]: 136 ng/mL; NPT-2042 concentration, Time 8.00 h [3, 9]: 46.8 ng/mL; NPT-2042 concentration, Time 12.00 h [3, 9]: 28.0 ng/mL; NPT-2042 concentration, Time 24.00 h [3, 9]: 0.930 ng/mL; concentration at 0.08 h ([3]; rat, plasma, iv, 10 mg/kg, rat, individual rats and Mean (N=3), read-out: NPT-2042 concentration, Time 0.08 h): 1720 ng/mL; concentration at 2 h ([3]; rat, plasma, iv, 10 mg/kg, rat, individual rats and Mean (N=3), read-out: NPT-2042 concentration, Time 2.00 h): 317 ng/mL; concentration at 4 h ([3]; rat, plasma, iv, 10 mg/kg, rat, individual rats and Mean (N=3), read-out: NPT-2042 concentration, Time 4.00 h): 165 ng/mL; Rat Mic (MS Intensity) (Rat Microsomes; [10]): 7.73E+07; Rat Mic (MS Intensity) (Rat Microsomes; T = 0): 4.15E+08; Dog Mic (MS Intensity) (Dog Microsomes; [10]): 1.85E+08; Dog Mic (MS Intensity) (Dog Microsomes; T = 0): 3.79E+08; Human Mic (MS Intensity) (Human Microsomes; [10]): 1.64E+08; Human Mic (MS Intensity) (Human Microsomes; T = 0): 3.71E+08; Major biotransformation pathways (Microsomes): De-alkylation, Mono-oxidation, and Mono-oxidation and De-alkylation
